Legend:
Glutathione reactivity = conditions: 50 μM glutathione, over 48 h
Stability over 24 h = conditions: over a period of 24 h
Keap1 Kelch domain = Keap1 Kelch domain (Homo sapiens, UniProt Q14145); experiment: SPR solution competition assay; format: binding
Keap1 Kelch domain, sequence (Q14145 321-609 limits assumed): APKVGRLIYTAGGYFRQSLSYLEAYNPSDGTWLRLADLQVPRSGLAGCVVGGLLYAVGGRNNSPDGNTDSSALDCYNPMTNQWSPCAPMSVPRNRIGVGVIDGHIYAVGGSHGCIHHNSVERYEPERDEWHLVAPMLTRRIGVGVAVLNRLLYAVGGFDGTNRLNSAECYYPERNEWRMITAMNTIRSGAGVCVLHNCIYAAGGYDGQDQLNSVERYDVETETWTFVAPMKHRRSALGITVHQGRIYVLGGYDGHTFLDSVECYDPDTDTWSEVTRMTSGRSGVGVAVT

Question: For `O=C(O)[C@H]1CCCC[C@H]1C(=O)N1CCc2ccccc2[C@H]1CN1C(=O)c2ccccc2C1=O` [(SRS)-5], which “thiol addition or decomposition” value (Glutathione reactivity) is on record?
Answer: Its value is “No thiol addition or decomposition could be detected”.

Question: And the stability (Stability over 24 h)?
Answer: Its stability is “highly stable”.

Question: With `NC(=O)C1CCCCC1C(=O)N1CCc2ccccc2C1CN1C(=O)c2ccccc2C1=O` (centres unmarked) [corresponding amide] as the compound, how does the “fold less active than (SRS)-5” value (Keap1 Kelch domain; relative to (SRS)-5) read?
Answer: Its value is “about 20 fold”.

Question: Which “Keap1 binding activity (in words)” value (Keap1 Kelch domain) does the source give for `COC(=O)C1CCCCC1C(=O)N1CCc2ccccc2C1CN1C(=O)c2ccccc2C1=O` (centres unmarked) [corresponding methyl ester] here?
Answer: The value was “completely inactive”.

Question: For `O=C(O)C1CCCCC1C(=O)N1CCc2ccccc2C1CN1Cc2ccccc2C1=O` (centres unmarked) [lactam], which “Keap1 binding activity (in words)” value (Keap1 Kelch domain) is on record?
Answer: Its value is “only slight decrease in Keap1 binding”.

— PMC3648997 (Bioorganic & medicinal chemistry letters, 2013)
